Laboratory results taken from patent US5453518A, “Flavone derivatives” (Recordati S.A., Chemical and Pharmaceutical Company, priority 1992, dated 1995).
Where a name gives a salt, the structure may show the parent alone. Read-outs that look alike come from different tables or passages of the source.

Assays:
[1] = system: rat bladder (K^+ -induced contractions); assay: Inhibition of K^+ -induced rat bladder contractions; design: species or system rat (male Sprague Dawley); conditions: for IC50: 0.5 h, KCl 80 mM, 30 min after drug, isolated rat bladder; for activity of N-oxide compounds: in words, based on the Table
Procedure: Female Albino Swiss mice [Crl: CD-1 (ICR) BR] with a body weight of 20-30 g and male Sprague Dawley rats [Crl: CD° BR] with a body weight of 200-300 g, from the Charles River Farm, Italy, were used for the trials. The animals were housed with free access to food and water and kept on a forced light-darkness cycle at 22°-24° C. until the day of the trials. Male rats were killed by a blow on their heads and their lower abdomens were opened along the midlines. Their urinary bladders were removed by a transverse dissection above the trigone and cut into two fragments (20-30 mm long, 1-2 mm wide). Each fragment was suspended in an isolated organ bath containing 10 ml of a normal Tyrode solution (composition in mM: NaCl 137, KCl 2.68, MgCl2 1.11, CaCl2 1.8, NaH2 PO4 0.41, NaHCO3 11.9, glucose 5.55) and connected, under a steady 1 g load, to an isometric transducer (DY-1, Basile). The solution was gassed with a mixture of 95% O2 and 5% CO2 and heated at 37° C. After a 60 minute equilibration the tension responses to a single KCl dose (Bath concentration=80 mM) inducing phasic and tonic contractions were measured under isometric conditions at 30 minute intervals. After recording one or more reproducible responses, a solution of the test drug was added to the bath (final concentration from 10^-4 to 10^-9 M) and 30 minutes later a new contraction was induced. The experimental groups were made up of at least 2 preparations from different animals for each drug concentration tested. The IC50 values of the inhibition of the agonist-induced contractions were evaluated by linear regression analysis.

[2] = Acute toxicity in mice (LD50); assay type: in vivo; conditions: mouse, in vivo, mice, death rate 7 days after administration
Procedure: (§1) Female Albino Swiss mice [Crl: CD-1 (ICR) BR] with a body weight of 20-30 g and male Sprague Dawley rats [Crl: CD° BR] with a body weight of 200-300 g, from the Charles River Farm, Italy, were used for the trials. The animals were housed with free access to food and water and kept on a forced light-darkness cycle at 22°-24° C. until the day of the trials.
(§2) The acute toxicity was evaluated in female Albino Swiss mice after intraperitoneal or oral administrations. Four logarithmic scaled doses of the compounds were dissolved or suspended in 0.5% aqueous Methocel and administered at a volume of 10 ml/kg to groups of 4 mice/dose. The death rate was recorded 7 days after the administration.
(§3) The LD50 values and the relevant confidence limits were calculated according to the method of Weil (Biometrics, 8, 249, 1952).

[3] = Stability at 37° C. and physiological pH (phosphate buffer, pH=7.4); assay type: physicochemical; conditions: pH 7.4 phosphate buffer, read-out: Stability at pH 7.4, % Unchanged after 3 h
Excerpt: The stability of the other compounds of the invention was not investigated as they are known to be less subject to degradation than the esters.

Female Albino Swiss mice = assay: Acute toxicity in mice (LD50); assay type: in vivo; conditions: in words; LD50/IC50 compared with Flavoxate
Procedure: as §1, §2, §3

[4] = phasic contraction, read-out: IC50, inhibition of K^+ -induced rat bladder contractions, Phasic
[5] = tonic contraction, read-out: IC50, inhibition of K^+ -induced rat bladder contractions, Tonic
[6] = ip, i.p., read-out: Mice LD50 i.p.
[7] = po, p.o., read-out: Mice LD50 p.o.

Structure (SMILES) | IC50 [1, 4] | IC50 [1, 5] | LD50 at 168 h [2, 6] | LD50 at 168 h [2, 7] | activity of N-oxide compounds [1] | remaining at 3 h [3] | relative therapeutic index (LD50/IC50) versus Flavoxate (Female Albino Swiss mice)
COc1ccc(C(C#N)(CCCN(C)CC(=O)c2cccc3c(=O)c(C)c(-c4ccccc4)oc23)C(C)C)cc1OC.Cl.O (stereo not shown) [Example 1, 8-{2-[4-Cyano-4-(3,4-dimethoxyphenyl)-5,N-dimethylhexylamino]-1-oxoethyl}-3-methyl-4-oxo-2-phenyl-4H-1-benzopyran hydrochloride hydrate] | 10000 nM | > 10000 nM | 475 mg/kg | > 3000 mg/kg | – | – | –
COc1ccc(CCN(C)CCCOC(=O)c2cccc3c(=O)c(C)c(-c4ccccc4)oc23)cc1OC.Cl [Example 2, 8-{3-[2-(3,4-Dimethoxyphenyl)-N-methylethylamino]propoxycarbonyl}-3-methyl-4-oxo-2-phenyl-4H-1-benzopyran hydrochloride] | 1000 nM | 500 nM | 773 mg/kg | 2260 mg/kg | – | – | –
COc1ccc(CC[N+](C)([O-])CCCOC(=O)c2cccc3c(=O)c(C)c(-c4ccccc4)oc23)cc1OC (stereo not shown) [Example 3, 8-{3-[2-(3,4-Dimethoxyphenyl)-N-methyl-N-oxoethylamino]-propoxycarbonyl}-3-methyl-4-oxo-2-phenyl-4H-1-benzopyran hydrochloride] | > 10000 nM | > 10000 nM | > 1000 mg/kg | > 3000 mg/kg | do not appear to be very active | – | –
COc1ccc(C(C#N)(CCCN(C)CCCOC(=O)c2cccc3c(=O)c(C)c(-c4ccccc4)oc23)C(C)C)cc1OC.Cl (stereo not shown) [Example 4, 8-{3-[4-Cyano-4-(3,4-dimethoxyphenyl)-N,5-dimethylhexylamino]propoxycarbonyl}-3-methyl-4-oxo-2-phenyl-4H-1-benzopyran hydrochloride] | 500 nM | 1300 nM | > 1000 mg/kg | > 3000 mg/kg | – | 100% | –
COc1ccc(C(C#N)(CCC[N+](C)([O-])CCCOC(=O)c2cccc3c(=O)c(C)c(-c4ccccc4)oc23)C(C)C)cc1OC (stereo not shown) [Example 5, 8-{3-[4-Cyano-4-(3,4-dimethoxyphenyl)-N,5-dimethyl-N-oxohexylamino]propoxycarbonyl}-3-methyl-4-oxo-2-phenyl-4H-1-benzopyran hydrochloride x 0.25 H2 O] | 10000 nM | 2200 nM | > 1000 mg/kg | > 3000 mg/kg | do not appear to be very active | – | –
CCN(CCCOC(=O)c1cccc2c(=O)c(C)c(-c3ccccc3)oc12)C(C)Cc1ccc(OC)cc1.Cl (stereo not shown) [Example 6, 8-{3-[N-Ethyl-3-(4-methoxyphenyl)-2-propylamino]propoxycarbonyl}-3-methyl-4-oxo-2-phenyl-4H-1-benzopyran hydrochloride] | 1700 nM | 4200 nM | > 1000 mg/kg | > 3000 mg/kg | – | 99% | –
COc1ccc(CC2c3cc(OC)c(OC)cc3CCN2CCCOC(=O)c2cccc3c(=O)c(C)c(-c4ccccc4)oc23)cc1OC (stereo not shown) [Example 7, 8-{3-[1-(3,4-Dimethoxybenzyl)-6,7-dimethoxy-2H-1,2,3,4-tetrahydro-2-isoquinolinyl]propoxycarbonyl}-3-methyl-4-oxo-2-phenyl-4H-1-benzopyran hydrochloride] | 1400 nM | 900 nM | > 1000 mg/kg | > 3000 mg/kg | – | 99% | –
COc1ccc(C(C#N)(CCCN(C)CCCNC(=O)c2cccc3c(=O)c(C)c(-c4ccccc4)oc23)C(C)C)cc1OC (stereo not shown) [Example 11, 8-{3-[4-Cyano-4-(3,4-dimethoxyphenyl)-N,5-dimethylhexylamino]propylcarbamoyl}-3-methyl-4-oxo-2-phenyl-4H-1-benzopyran hydrochloride hemihydrate] | 600 nM | 500 nM | 224 mg/kg | 400 mg/kg | – | – | considerably safer than Flavoxate
COc1ccc(CCN(C)CCCNC(=O)c2cccc3c(=O)c(C)c(-c4ccccc4)oc23)cc1OC [Example 12, 8-{3-[2-(3,4-Dimethoxyphenyl)-N-methylethylamino]propylcarbamoyl}-3-methyl-4-oxo-2-phenyl-4H -1-benzopyran hydrochloride 0.3-hydrate] | 2200 nM | 1400 nM | 129 mg/kg | 716 mg/kg | – | – | –
COc1ccc(C(C#N)(CCCN(C)CCNC(=O)c2cccc3c(=O)c(C)c(-c4ccccc4)oc23)C(C)C)cc1OC (stereo not shown) [Example 13, 8-{2-[4-Cyano-4-(3,4-dimethoxyphenyl)-N,5-dimethylhexylamino]ethylcarbamoyl}-3-methyl-4-oxo-2-phenyl-4H-1-benzopyran hydrochloride hemihydrate] | 300 nM | 100 nM | 422 mg/kg | – | – | – | –
COc1ccc(C(C#N)(CCCN(C)CCN(C)C(=O)c2cccc3c(=O)c(C)c(-c4ccccc4)oc23)C(C)C)cc1OC.Cl.O (stereo not shown) [Example 14, 8-{2-[4-Cyano-4-(3,4-dimethoxyphenyl)-N,5-dimethylhexylamino]-N-methylethylcarbamoyl}-3-methyl-4-oxo-2-phenyl-4H-1-benzopyran hydrochloride hydrate] | 100 nM | 100 nM | 159 mg/kg | 346 mg/kg | – | – | considerably safer than Flavoxate
COc1ccc(C(C#N)(CCCN(C)CC(=O)NCc2cccc3c(=O)c(C)c(-c4ccccc4)oc23)C(C)C)cc1OC.Cl.O.O (stereo not shown) [Example 16, 8-{2-[4-Cyano-4-(3,4-dimethoxyphenyl)-N,5-dimethylhexylamino]-1-oxoethylaminomethyl}-3-methyl-4-oxo-2-phenyl-4H -1-benzopyran hydrochloride dihydrate] | 500 nM | 900 nM | 440 mg/kg | 1280 mg/kg | – | – | –
COc1ccc(C(C#N)(CCCN(C)CC(=O)N(C)Cc2cccc3c(=O)c(C)c(-c4ccccc4)oc23)C(C)C)cc1OC.Cl.O (stereo not shown) [Example 17, 8-{2-[4-Cyano-4-(3,4-dimethoxyphenyl)-N,5-dimethylhexylamino]-N-methyl-1-oxo-ethylaminomethyl}-3-methyl-4-oxo-2-phenyl-4H-1-benzopyran hydrochloride hydrate] | 200 nM | 400 nM | 334 mg/kg | 1710 mg/kg | – | – | –
COc1ccc(C(C#N)(CCCN(C)CCOCc2cccc3c(=O)c(C)c(-c4ccccc4)oc23)C(C)C)cc1OC.Cl.O (stereo not shown) [Example 18, 8-{2-[4-Cyano-4-(3,4-dimethoxyphenyl)-5,N-dimethylhexylamino]ethoxymethyl}-3-methyl-4-oxo-2-phenyl-4H-1-benzopyran hydrochloride hydrate] | 300 nM | 400 nM | 334 mg/kg | 974 mg/kg | – | – | –
COc1ccc(C(C#N)(CCCN(C)CCSCc2cccc3c(=O)c(C)c(-c4ccccc4)oc23)C(C)C)cc1OC.Cl (stereo not shown) [Example 19, 8-{2-[4-Cyano-4-(3,4-dimethoxyphenyl)-5,N-dimethylhexylamino]ethylthiomethyl}-3-methyl-4-oxo-2-phenyl-4H-1-benzopyran hydrochloride] | 500 nM | 1300 nM | > 1000 mg/kg | > 3000 mg/kg | – | – | –
COc1ccc(C(C#N)(CCCN(C)CCS(=O)(=O)Cc2cccc3c(=O)c(C)c(-c4ccccc4)oc23)C(C)C)cc1OC (stereo not shown) [Example 20, 8-{2-[4-Cyano-4-(3,4-dimethoxyphenyl)-5,N-dimethylhexylamino]ethylsulphonylmethyl}-3-methyl-4-oxo-2-phenyl-4H-1-benzopyran hydrochloride hemihydrate] | 500 nM | 500 nM | > 1000 mg/kg | > 3000 mg/kg | – | – | –
